Consider five compounds from paper PMC6073332 (2018).

Molecules are shown by their SMILES.

Assay [1] deals with single strand II (complement of I) (DNA, single strand) GAGAAGACAAGAGAG
Briefly: HPLC-ESI-MS. Particulars: 50 mM TEAA pH 7, 310 K, 24 h; Ru/II 1.0 or 3.0; covalent.

Assay [2] deals with duplex III (= I + II) (DNA, duplex) CTCTCTTGTCTTCTC/GAGAAGACAAGAGAG
The assay is described as follows: CD. Particulars: Na+ 100 mM (NaClO4) in incubation stock, 50 mM TEAA pH 7, 310 K, 24 h, diluted to 5 μM duplex, covalent.

Assay [3] concerns single strand I (-T7G8T9-) (DNA, single strand) CTCTCTTGTCTTCTC
The assay is described as follows: HPLC-UV peak areas, two-step stoichiometric fit. Particulars: none listed (50 mM triethylammonium acetate buffer only); 50 mM TEAA pH 7, 310 K, 24 h; covalent; site 1 of 2 (G8).

Assay [4] concerns single strand V (-C7G8A9-) (DNA, single strand) CTCTCTCGACTTCTC
The assay is described as follows: HPLC-UV peak areas, two-step stoichiometric fit. Particulars: none listed (50 mM triethylammonium acetate buffer only); 50 mM TEAA pH 7, 310 K, 24 h; covalent; site 1 of 2 (G8).

In assay [5] the test system is single strand IV (-T7G8A9-) (DNA, single strand) CTCTCTTGACTTCTC
Briefly: HPLC-UV peak areas, two-step stoichiometric fit. Particulars: none listed (50 mM triethylammonium acetate buffer only); 50 mM TEAA pH 7, 310 K, 24 h; covalent; site 1 of 2 (G8).

The test system of assay [6] is single strand VIII (-A7G8T9-) (DNA, single strand) CTCTCTAGTCTTCTC
The assay is described as follows: HPLC-UV peak areas, two-step stoichiometric fit. Particulars: none listed (50 mM triethylammonium acetate buffer only); 50 mM TEAA pH 7, 310 K, 24 h; covalent; site 1 of 2 (G8).

For assay [7], the system named is single strand VII (-C7G8C9-) (DNA, single strand) CTCTCTCGCCTTCTC
Briefly: HPLC-UV peak areas, two-step stoichiometric fit. Particulars: none listed (50 mM triethylammonium acetate buffer only); 50 mM TEAA pH 7, 310 K, 24 h; covalent; site 1 of 2 (G8).

Assay [8] relates to single strand IX (-A7G8A9-) (DNA, single strand) CTCTCTAGACTTCTC
The assay is described as follows: HPLC-UV peak areas, two-step stoichiometric fit. Particulars: none listed (50 mM triethylammonium acetate buffer only); 50 mM TEAA pH 7, 310 K, 24 h; covalent; site 1 of 2 (G8).

The subject of assay [9] is duplex III (= I + II) (DNA, duplex) CTCTCTTGTCTTCTC/GAGAAGACAAGAGAG
The assay is described as follows: HPLC-ESI-MS (denaturing). Particulars: Na+ 100 mM (NaClO4); 50 mM TEAA pH 7, 310 K, 48 h; Ru/III 1.0 or 6.0; covalent.

The subject of assay [10] is single strand VI (-A7G8C9-) (DNA, single strand) CTCTCTAGCCTTCTC
Briefly: HPLC-UV peak areas, two-step stoichiometric fit. Particulars: none listed (50 mM triethylammonium acetate buffer only); 50 mM TEAA pH 7, 310 K, 24 h; covalent; site 1 of 2 (G8).

Take `Cc1ccc(C(C)C)cc1.NCCN.[Cl-].[Ru+2]`: the binding entry in [1] and in assay [2] (Ru/III up to 6.0) was “yes” throughout. Moreover, the K1 in [3] was 3.94 ± 0.24 × 10^4 M^−1.
`N.N.[Cl-].[Cl-].[Pt+2]`: in assay [2] (Pt/III 6.0), the binding result is given as “yes”.
As for `NCCN.[Cl-].[Ru+2].c1ccc(-c2ccccc2)cc1`, the K1 is on record as 2.81 ± 0.55 × 10^4 M^−1 in assay [4]; 3.99 ± 0.31 × 10^4 M^−1 in assay [5]; 5.74 ± 0.44 × 10^4 M^−1 in assay [6]; 4.75 ± 0.53 × 10^4 M^−1 in [7]; 3.61 ± 0.39 × 10^4 M^−1 in [8]; 3.33 ± 0.37 × 10^4 M^−1 in assay [10]. Further, the K1 in assay [3] was 2.92 ± 0.46 × 10^4 M^−1. Moreover, the binding entry in assay [1] and in assay [9] was “yes” throughout.
For `NCCN.[Cl-].[Ru+2].c1ccc2c(c1)CCC2`, in [1], the binding entry was “yes”. The K1 in [3] is reported as 2.52 ± 0.13 × 10^4 M^−1.
Take `NCCN.[Cl-].[Ru+2].c1ccccc1`: the binding result in assay [1] and in assay [9] was “yes” each time. The K1 in assay [3] is 0.79 ± 0.04 × 10^4 M^−1.
